Laboratory results reported in patent publication US11066446B2, “Cyclic peptide, affinity chromatography support, labeled antibody, antibody drug conjugate, and pharmaceutical preparation” (FUJIFILM Corporation, priority 2016, dated 2021).
Positions of bridges follow the written chain, without caps; N, C: chain ends. Non-standard residues stand in square brackets, D forms with d. Residues, ends and D or L forms follow the SMILES beside them. Triazole bridges read from a SMILES are 1,4-linked. No end group written: not given here. Lys(N3) = [N-]=[N+]=NCCCC[C@H](N)C(=O)O; Orn(N3) = [N-]=[N+]=NCCC[C@H](N)C(=O)O; Dap(N3) = [N-]=[N+]=NC[C@H](N)C(=O)O; Bpg = L-bishomopropargylglycine; Hpra = C#CCC[C@H](N)C(=O)O

What was measured:
[1] = Stability in human plasma (residual rate by mass spectrometry); conditions: 20 minutes at room temperature, 0-minute sample as 100%
Method: After 20 minutes, 100 μL of methanol (manufactured by Wako Pure Chemical Industries, Ltd.) was added thereto such that the reaction stopped. After being stirred, the solution was subjected to centrifugation, and the supernatant was collected and named 20-minute sample. Meanwhile, 100 μL of methanol was added to 20 μL of the human plasma, 2 μL of the aqueous solution of the cyclic peptide was then added thereto, the solution was stirred and subjected to centrifugation, and the supernatant was collected. The collected supernatant was named 0-minute sample.
By regarding the quantified value obtained from the 0-minute sample as 100%, the quantified value obtained from the 20-minute sample was calculated as a residual rate.

[2] = tested on: human immunoglobulin G (IgG) antibodies; assay: Relative binding activity to human IgG antibodies by surface plasmon resonance on immobilized sensor chip; conditions: SPR (Biacore 3000, CM5 chip), 3,000 nM human IgG for 10 minutes at 25° C., relative to the cyclic peptide of Comparative Example 1 regarded as 1
Method: A commercially available CM5 (carboxymethyl dextran introduction-type, manufactured by GE Healthcare) sensor chip was set in Biacore 3000 (Biacore is a registered trademark) as a surface plasmon resonance device manufactured by GE Healthcare, a 4-(2-hydroxyethyl)-1-piperazineethanesulfonic acid (HEPES) buffer solution (20 mM HEPES-HCl, 150 mM NaCl, pH 7.4) for surface plasmon resonance (SPR) was stabilized at a flow rate of 10 μL/min, and 70 μL of an aqueous mixed solution of 0.2 M 1-(3-Dimethylaminopropyl)-3-ethylcarbodiimide (EDC) and […] of N-Hydroxysuccinimide (NHS) were injected thereinto. Thereafter, 100 μL of a sample solution of the cyclic peptide 1, which was diluted with a HEPES buffer solution at 0.2 g/L and treated with a polytetrafluoroethylene (PTFE) filter (manufactured by Advantec MFS, Inc.) having a diameter of 0.20 μm, was supplied to the sensor chip. Then, a blocking treatment was then performed on the sample solution by using an aqueous ethanolamine solution, and the sensor chip was washed with an aqueous sodium hydroxide solution, thereby performing immobilization. Likewise, 70 μL of an aqueous mixed solution of 0.2 M EDC and 0.04 M NHS was added to the same sensor chip without immobilizing the sample in another flow channel of the sensor chip, and then the blocking treatment and the washing treatment were performed. Hereinafter, the obtained immobilized sensor chip will be referred to as “immobilized sensor chip A”.
At 25° C., 3,000 nM of human immunoglobulin G (IgG) antibodies were added for 10 minutes to the immobilized sensor chip A prepared in (2) described above. Then, the antibody binding amount in the flow channel in which the cyclic peptide was immobilized immediately after the addition and in the flow channel in which the cyclic peptide was not immobilized was measured. From the difference in the antibody binding amount between the flow channel in which the cyclic peptide was immobilized and the flow channel in which the cyclic peptide was not immobilized and the amount of the immobilized cyclic peptide, the activity of the cyclic peptide was calculated. Furthermore, by regarding the activity of a cyclic peptide 5 in Comparative Example 1 as 1, the relative binding activity with respect to the human IgG antibodies was calculated.

[3] = Chemical resistance: rate of change in antibody binding amount of immobilized support before and after alkali treatment; type: physicochemical; conditions: peptide-immobilized HiTrap support; human IgG binding amount at 10% leak, before and after 0.05 M aqueous NaOH for 6 hours at 25° C.
Method: 1 mL of HiTrap NHS-activated HP Columns (coupling columns for ligand immobilization, manufactured by GE Healthcare) (HITRAP is a registered trademark) was reacted with 1 mL of 10 mg/mL cyclic peptide solution, which was prepared by dissolving the cyclic peptide 1 in an immobilization buffer (10% DMSO in 200 mM NaHCO3, 500 mM NaCl, pH 8.3), for 1 hour at 25° C. The reaction product was blocked by an aqueous ethanolamine solution and washed, thereby obtaining a cyclic peptide 1-immobilized support. Hereinafter, the obtained immobilized support will be referred to as “immobilized support A”.
The immobilized support A prepared in (4) described above was connected to a chromatography system AKTA avant 25 (manufactured by GE Healthcare) (AKTAAVANT is a registered trademark), and the antibody binding amount was measured. The columns were equilibrated using an equilibration solution (20 mM phosphoric acid buffer, 150 mM NaCl, pH 7.4), and then 20 mL of a 5 mg/mL human IgG antibody standard buffer solution (20 mM phosphoric acid buffer, 150 mM NaCl, pH 7.4) was injected thereinto at a flow rate of 0.21 mL/min. Thereafter, the columns were washed with 5 mL of a postloading wash solution (20 mM phosphoric acid buffer, 150 mM NaCl, pH 7.4) caused to flow at the same flow rate and then washed with 5 mL of a pre-elution wash solution (20 mM phosphoric acid buffer, 1 M NaCl, pH 7.4) at the same flow rate. Then, 5 mL of an elution solution (100 mM citric acid buffer, pH 3.2) was caused to flow at the same flow rate. Subsequently, 5 mL of a cleaning in place (CIP) solution (0.1 M sodium hydroxide) was caused to flow at the same flow rate, and then 5 mL of a reequilibration solution (20 mM phosphoric acid buffer, 150 mM NaCl, pH 7.4) was caused to flow at the same flow rate. At this time, by using an immunoglobulin G (IgG) elution peak obtained by monitoring absorbance at 280 nm, the amount of antibodies binding to the support until 10% of the antibody stock solution leaked out of the support was measured as the antibody binding amount. Then, the immobilized support A was filled with a 0.05 M aqueous NaOH solution for 6 hours at 25° C. and left to stand, the antibody binding amount of the support was then measured in the same manner, and a rate of change in the binding amount was calculated from the antibody binding amount before and after the alkali treatment.

| Molecule | Stability in plasma (residual rate) [1] | Relative binding activity [2] | Chemical resistance (rate of change in the binding amount) [3] | Relative binding activity ([2]; listed as Example 16) |
| --- | --- | --- | --- | --- |
| CC(C)C[C@@H]1NC(=O)[C@H](Cc2c[nH]cn2)NC(=O)[C@H](Cc2ccc(O)cc2)NC(=O)[C@H](C)NC(=O)[C@@H](NC(=O)[C@@H](N)CC(=O)O)CCc2cn(nn2)C[C@@H](C(=O)N[C@H](C(=O)N[C@@H](CCCCN)C(=O)N[C@@H](CCCCN)C(=O)O)[C@@H](C)O)NC(=O)[C@H](Cc2c[nH]c3ccccc23)NC(=O)[C@H](C(C)C)NC(=O)[C@H](CC(C)C)NC(=O)[C@H](CCC(=O)O)NC(=O)CNC1=O [Cyclic peptide 4, Asp-[Hpg]-Ala-Tyr-His-Leu-Gly-Glu-Leu-Val-Trp-[Ala(N3)]-Thr-Lys-Lys] (H-D[Hpra]AYHLGELVW[Dap(N3)]TKK-OH; triazole 2-12; N-terminus and C-terminus assumed) | A (The rate of change in the binding amount was higher than 90%) |  |  |  |
| Asp-[Lys(N3)]-Ala-Tyr-His-Leu-Gly-Glu-Leu-Val-Trp-[Bpg]-Thr-Lys-Lys (D[Lys(N3)]AYHLGELVW[Bpg]TKK; triazole 2-12) [Cyclic peptide 2] | A (The rate of change in the binding amount was higher than 90%) | A (The relative binding activity was higher than 800% of the binding activity of the cyclic peptide 5) | A (The rate of change in the binding amount was higher than 90%) |  |
| Asp-[Lys(N3)]-Ala-Tyr-His-Arg-Gly-Glu-Leu-Val-Trp-[Bpg]-Thr-Lys-Lys (D[Lys(N3)]AYHRGELVW[Bpg]TKK; triazole 2-12) [Cyclic peptide 1] | A (The rate of change in the binding amount was higher than 90%) | A (The relative binding activity was higher than 800% of the binding activity of the cyclic peptide 5) | B (The rate of change in the binding amount was higher than 80% and equal to or lower than 90%) |  |
| CC(C)C[C@@H]1NC(=O)[C@H](CCC(=O)O)NC(=O)CNC(=O)[C@H](CCCNC(=N)N)NC(=O)[C@H](Cc2c[nH]cn2)NC(=O)[C@H](Cc2ccc(O)cc2)NC(=O)[C@H](C)NC(=O)[C@@H](NC(=O)[C@@H](N)CC(=O)O)CCC(=O)NCCCC[C@@H](C(=O)N[C@H](C(=O)N[C@@H](CCCCN)C(=O)N[C@@H](CCCCN)C(=O)O)[C@@H](C)O)NC(=O)[C@H](Cc2c[nH]c3ccccc23)NC(=O)[C@H](C(C)C)NC1=O [Cyclic peptide 17, Asp-[Glu]-Ala-Tyr-His-Arg-Gly-Glu-Leu-Val-Trp-[Lys]-Thr-Lys-Lys, reference compound] (HELM PEPTIDE1{D.E.A.Y.H.R.G.E.L.V.W.K.T.K.K}$PEPTIDE1,PEPTIDE1,2:R3-12:R3$$$V2.0; N-terminus and C-terminus assumed) | E (The rate of change in the binding amount was equal to or lower than 50%) |  |  |  |
| Lys-Lys-Lys-Asp-[Hpg]-Ala-Tyr-His-Leu-Gly-Glu-Leu-Val-Trp-[Ala(N3)]-Thr (KKKD[Hpra]AYHLGELVW[Dap(N3)]T; triazole 5-15) [Cyclic peptide 5, [Hpg] and [Ala(N3)] cross-linked through a triazole bond] |  | A (The relative binding activity was higher than 800% of the binding activity of the cyclic peptide 5) | A (The rate of change in the binding amount was higher than 90%) |  |
| Asp-[Nva(N3)]-Ala-Tyr-His-Leu-Gly-Glu-Leu-Val-Trp-[Bpg]-Thr-Lys-Lys (D[Orn(N3)]AYHLGELVW[Bpg]TKK; triazole 2-12) [Cyclic peptide 16, [Nva(N3)] and [Bpg] cross-linked through a triazole bond] |  | B (The relative binding activity was higher than 400% and equal to or lower than 800% of the binding activity of the cyclic peptide 5) | A (The rate of change in the binding amount was higher than 90%) | C or a higher grade |
| Asp-[Bpg]-Ala-Tyr-His-Leu-Gly-Glu-Leu-Val-Trp-[Lys(N3)]-Thr-Lys-Lys (D[Bpg]AYHLGELVW[Lys(N3)]TKK; triazole 2-12) [Cyclic peptide 3, [Bpg] and [Lys(N3)] cross-linked through a triazole bond] |  | A (The relative binding activity was higher than 800% of the binding activity of the cyclic peptide 5) | A (The rate of change in the binding amount was higher than 90%) |  |
